Experimental data as given in ChEMBL document CHEMBL3352435, “Multiple fragment docking and linking in primary and secondary pockets of dopamine receptors” (ACS Med Chem Lett, 2014).

Experiments:
D(2) dopamine receptor = D(2) dopamine receptor (Homo sapiens, UniProt P14416); assay: Displacement of [3H]-raclopride from human D2long receptor expressed in HEK293Galpha15 cells after 120 mins by scintillation counting analysis; type: cell-based
D(3) dopamine receptor = D(3) dopamine receptor (Homo sapiens, UniProt P35462); assay: Displacement of [3H]-raclopride from human D3 receptor expressed in CHO-K1 cells after 120 mins by scintillation counting analysis; type: cell-based
Sequence of D(3) dopamine receptor (P35462 whole entry): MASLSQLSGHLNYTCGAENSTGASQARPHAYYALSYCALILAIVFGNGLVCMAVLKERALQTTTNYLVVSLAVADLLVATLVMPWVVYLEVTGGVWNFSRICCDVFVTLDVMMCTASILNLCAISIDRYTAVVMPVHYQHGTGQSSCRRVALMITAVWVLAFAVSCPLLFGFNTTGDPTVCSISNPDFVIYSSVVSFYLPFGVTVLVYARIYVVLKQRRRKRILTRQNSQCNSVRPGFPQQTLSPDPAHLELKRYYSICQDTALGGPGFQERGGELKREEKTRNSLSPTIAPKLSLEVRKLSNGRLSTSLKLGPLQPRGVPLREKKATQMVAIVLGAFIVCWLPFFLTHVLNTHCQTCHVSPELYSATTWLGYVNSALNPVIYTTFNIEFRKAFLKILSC

Homo sapiens = species on record: Homo sapiens; assay: Selectivity index, ratio of Ki for human D2long receptor to Ki for human D3 receptor

Sequence of D(2) dopamine receptor (P14416 whole entry): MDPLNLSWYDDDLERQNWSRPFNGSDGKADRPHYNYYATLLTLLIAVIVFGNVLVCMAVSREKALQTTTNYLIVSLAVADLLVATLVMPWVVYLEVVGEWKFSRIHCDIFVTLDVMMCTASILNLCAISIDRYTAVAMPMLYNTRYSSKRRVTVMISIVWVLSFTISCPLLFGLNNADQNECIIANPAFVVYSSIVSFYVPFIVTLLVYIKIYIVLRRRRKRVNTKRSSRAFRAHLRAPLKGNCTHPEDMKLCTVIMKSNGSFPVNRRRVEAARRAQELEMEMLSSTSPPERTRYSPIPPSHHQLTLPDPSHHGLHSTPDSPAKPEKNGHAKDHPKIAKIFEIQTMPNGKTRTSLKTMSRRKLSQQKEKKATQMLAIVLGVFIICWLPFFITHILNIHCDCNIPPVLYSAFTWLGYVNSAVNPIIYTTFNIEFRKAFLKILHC

## N#Cc1cc(N2CCN(CC[C@H]3CC[C@H](NC(N)=O)CC3)CC2)cc(C(F)(F)F)c1
D(2) dopamine receptor
  Ki: 30 nM
D(3) dopamine receptor
  Ki: 0.75 nM
Homo sapiens
  Ratio Ki: 39

## N#Cc1cc(N2CCN(CC[C@H]3CC[C@H](NS(N)(=O)=O)CC3)CC2)cc(C(F)(F)F)c1
D(2) dopamine receptor
  Ki: 37 nM
D(3) dopamine receptor
  Ki: 0.67 nM
Homo sapiens
  Ratio Ki: 55

## N#Cc1cc(N2CCN(CC[C@H]3CC[C@H](NC(=O)CN)CC3)CC2)cc(C(F)(F)F)c1
D(2) dopamine receptor
  Ki: 5.4 nM
D(3) dopamine receptor
  Ki: 0.62 nM
Homo sapiens
  Ratio Ki: 9
